In paper PMC11812216, “Multifunctional hyaluronic acid-based biomimetic/pH-responsive hybrid nanostructured lipid carriers for treating bacterial sepsis” (Journal of Biomedical Science, 2025):

What was measured:
[1] = target: T1, Recombinant human TLR2 (RPA663Hu03) (Homo sapiens, UniProt O60603); assay: microscale thermophoresis, His-tag-labelled TLR2; assay type: binding
T1 construct: commercial recombinant protein (Biocom Africa), His-tag labelled with Red-tris-NTA
Source text: microscale thermophoresis, His-tag-labelled TLR2 on Recombinant human TLR2 (RPA663Hu03)

[2] = target: T2, Recombinant human TLR4 (Active ab233665) (Homo sapiens, UniProt O00206); assay: microscale thermophoresis, Blue-NHS-labelled TLR4; assay type: binding
T2 construct: commercial recombinant protein (Abcam), labelled with Blue-NHS dye; no MD-2 mentioned
T2 sequence (O00206 24-631 limits assumed): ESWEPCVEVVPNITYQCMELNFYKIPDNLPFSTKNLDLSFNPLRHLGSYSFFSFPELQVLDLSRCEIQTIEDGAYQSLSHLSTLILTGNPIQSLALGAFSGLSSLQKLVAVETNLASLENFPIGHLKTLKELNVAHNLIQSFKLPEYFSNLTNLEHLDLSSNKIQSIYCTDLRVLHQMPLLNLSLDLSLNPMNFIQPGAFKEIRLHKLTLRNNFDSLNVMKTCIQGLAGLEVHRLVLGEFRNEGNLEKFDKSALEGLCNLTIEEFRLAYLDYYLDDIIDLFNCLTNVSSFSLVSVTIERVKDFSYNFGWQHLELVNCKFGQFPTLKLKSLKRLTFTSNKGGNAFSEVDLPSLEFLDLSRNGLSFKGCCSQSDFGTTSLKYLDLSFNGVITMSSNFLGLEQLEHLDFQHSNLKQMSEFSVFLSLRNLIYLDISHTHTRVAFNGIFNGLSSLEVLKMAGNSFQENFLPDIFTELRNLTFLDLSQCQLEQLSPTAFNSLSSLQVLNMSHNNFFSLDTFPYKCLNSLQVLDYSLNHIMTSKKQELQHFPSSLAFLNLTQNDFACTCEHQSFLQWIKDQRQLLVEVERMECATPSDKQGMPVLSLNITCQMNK
Source text: microscale thermophoresis, Blue-NHS-labelled TLR4 on Recombinant human TLR4 (Active ab233665)

T1 sequence (O60603 21-588 limits assumed): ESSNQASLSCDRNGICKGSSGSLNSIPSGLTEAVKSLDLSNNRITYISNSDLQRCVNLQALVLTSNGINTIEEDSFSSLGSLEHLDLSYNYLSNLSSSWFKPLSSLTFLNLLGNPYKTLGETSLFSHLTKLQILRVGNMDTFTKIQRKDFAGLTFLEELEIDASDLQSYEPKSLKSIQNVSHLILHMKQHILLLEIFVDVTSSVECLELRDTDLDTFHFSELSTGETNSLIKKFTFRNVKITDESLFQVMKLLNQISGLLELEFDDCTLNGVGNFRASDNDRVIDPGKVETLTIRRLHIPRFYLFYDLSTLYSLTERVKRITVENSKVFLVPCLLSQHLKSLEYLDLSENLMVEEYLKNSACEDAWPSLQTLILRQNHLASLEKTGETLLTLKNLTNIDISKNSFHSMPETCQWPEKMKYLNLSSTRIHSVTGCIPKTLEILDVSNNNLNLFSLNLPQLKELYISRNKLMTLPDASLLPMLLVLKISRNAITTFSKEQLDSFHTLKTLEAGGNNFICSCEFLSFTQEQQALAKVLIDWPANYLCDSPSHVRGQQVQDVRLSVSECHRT

Kd [1]: 2.78 ± 0.74 µM
Kd [2]: 43.5 ± 2.35 µM
SMILES: NCCCC[C@H](N)C(=O)O [Lys]
